Assay results reported in the CheMixHub viscosity set.
± gives the uncertainty stated by the source.

Assay: xn = mol fraction of the nth substance listed

CNC(C)=O + COCCO
viscosity [mPa·s], 101.33 kPa
Settings | 308.15 K | 313.15 K | 318.15 K
x1 = 0.0301 | 1.362 ± 0.011 | 1.242 ± 0.01 | 1.136 ± 0.009
x1 = 0.0501 | 1.393 ± 0.011 | 1.27 ± 0.01 | 1.16 ± 0.009
x1 = 0.0752 | 1.431 ± 0.011 | 1.304 ± 0.01 | 1.191 ± 0.009
x1 = 0.1036 | 1.476 ± 0.011 | 1.343 ± 0.011 | 1.227 ± 0.01
x1 = 0.1301 | 1.515 ± 0.012 | 1.378 ± 0.011 | 1.259 ± 0.01
x1 = 0.17 | 1.574 ± 0.012 | 1.432 ± 0.011 | 1.307 ± 0.01
x1 = 0.2032 | 1.624 ± 0.013 | 1.477 ± 0.011 | 1.348 ± 0.011
x1 = 0.2501 | 1.696 ± 0.013 | 1.541 ± 0.012 | 1.404 ± 0.011
x1 = 0.302 | 1.776 ± 0.014 | 1.613 ± 0.012 | 1.468 ± 0.011
x1 = 0.4032 | 1.94 ± 0.015 | 1.758 ± 0.014 | 1.596 ± 0.012
x1 = 0.5037 | 2.114 ± 0.016 | 1.91 ± 0.015 | 1.73 ± 0.013
x1 = 0.6033 | 2.308 ± 0.018 | 2.074 ± 0.016 | 1.876 ± 0.014
x1 = 0.65 | 2.409 ± 0.018 | 2.16 ± 0.016 | 1.95 ± 0.015
x1 = 0.7021 | 2.526 ± 0.019 | 2.259 ± 0.017 | 2.038 ± 0.016
x1 = 0.7503 | 2.641 ± 0.02 | 2.357 ± 0.018 | 2.124 ± 0.016
x1 = 0.8032 | 2.775 ± 0.021 | 2.477 ± 0.019 | 2.227 ± 0.017
x1 = 0.8524 | 2.908 ± 0.022 | 2.594 ± 0.02 | 2.328 ± 0.018
x1 = 0.9035 | 3.061 ± 0.023 | 2.724 ± 0.021 | 2.439 ± 0.018
x1 = 0.9301 | 3.145 ± 0.024 | 2.795 ± 0.021 | 2.5 ± 0.019
x1 = 0.9702 | 3.277 ± 0.025 | 2.913 ± 0.022 | 2.597 ± 0.02

CCOCCO + C=C(C)C(=O)OC
viscosity [mPa·s], 101.3 kPa
Settings | 298.15 K | 308.15 K
x2 = 0.0533 | 1.64 ± 0.01 | 1.305 ± 0.008
x2 = 0.154 | 1.402 ± 0.009 | 1.146 ± 0.008
x2 = 0.2467 | 1.225 ± 0.008 | 1.022 ± 0.007
x2 = 0.3554 | 1.059 ± 0.007 | 0.9 ± 0.006
x2 = 0.4551 | 0.937 ± 0.006 | 0.807 ± 0.006
x2 = 0.4993 | 0.89 ± 0.006 | 0.77 ± 0.005
x2 = 0.5543 | 0.838 ± 0.006 | 0.727 ± 0.005
x2 = 0.6547 | 0.758 ± 0.005 | 0.658 ± 0.005
x2 = 0.7547 | 0.693 ± 0.005 | 0.6 ± 0.004
x2 = 0.8858 | 0.628 ± 0.004 | 0.537 ± 0.004
x2 = 0.9532 | 0.603 ± 0.004 | 0.517 ± 0.004

CCOCCO + C1CCCCC1
viscosity [mPa·s]
Settings | 298.15 K | 303.15 K | 308.15 K | 313.15 K
101 kPa, x1 = 0.0542 | 0.903 ± 0.016 | – | 0.755 ± 0.013 | –
101 kPa, x1 = 0.1507 | 0.92 ± 0.016 | – | 0.775 ± 0.014 | –
101 kPa, x1 = 0.2541 | 0.952 ± 0.016 | – | 0.805 ± 0.014 | –
101 kPa, x1 = 0.3508 | 0.996 ± 0.017 | – | 0.841 ± 0.014 | –
101 kPa, x1 = 0.452 | 1.057 ± 0.018 | – | 0.888 ± 0.015 | –
101 kPa, x1 = 0.5 | 1.093 ± 0.018 | – | 0.915 ± 0.016 | –
101 kPa, x1 = 0.5497 | 1.135 ± 0.019 | – | 0.945 ± 0.016 | –
101 kPa, x1 = 0.6534 | 1.24 ± 0.02 | – | 1.019 ± 0.017 | –
101 kPa, x1 = 0.7527 | 1.368 ± 0.022 | – | 1.105 ± 0.018 | –
101 kPa, x1 = 0.8492 | 1.524 ± 0.024 | – | 1.206 ± 0.02 | –
101 kPa, x1 = 0.9552 | 1.741 ± 0.028 | – | 1.341 ± 0.022 | –
101.33 kPa, x1 = 0.0993 | 0.864 ± 0.022 | 0.787 ± 0.02 | 0.724 ± 0.019 | 0.663 ± 0.018
101.33 kPa, x1 = 0.2013 | 0.91 ± 0.023 | 0.827 ± 0.021 | 0.755 ± 0.02 | 0.696 ± 0.018
101.33 kPa, x1 = 0.2968 | 0.961 ± 0.024 | 0.875 ± 0.022 | 0.798 ± 0.02 | 0.731 ± 0.019
101.33 kPa, x1 = 0.4007 | 1.035 ± 0.026 | 0.938 ± 0.024 | 0.852 ± 0.022 | 0.786 ± 0.02
101.33 kPa, x1 = 0.495 | 1.112 ± 0.027 | 1.004 ± 0.025 | 0.884 ± 0.022 | 0.837 ± 0.021
101.33 kPa, x1 = 0.5998 | 1.211 ± 0.029 | 1.093 ± 0.027 | 0.992 ± 0.025 | 0.899 ± 0.023
101.33 kPa, x1 = 0.6974 | 1.341 ± 0.032 | 1.2 ± 0.029 | 1.085 ± 0.027 | 0.977 ± 0.024
101.33 kPa, x1 = 0.808 | 1.496 ± 0.036 | 1.341 ± 0.032 | 1.206 ± 0.029 | 1.094 ± 0.027
101.33 kPa, x1 = 0.9006 | 1.714 ± 0.04 | 1.527 ± 0.036 | 1.371 ± 0.033 | 1.231 ± 0.03

C=C(C)C(=O)OCCO + O=C1CCCCC1
viscosity [mPa·s], 101 kPa
Settings | x2 = 0.1 | x2 = 0.2 | x2 = 0.3 | x2 = 0.4 | x2 = 0.5 | x2 = 0.6 | x2 = 0.6999 | x2 = 0.8 | x2 = 0.9
298.15 K | 5.035 ± 0.23 | 4.22 ± 0.19 | 3.579 ± 0.17 | 3.213 ± 0.15 | 2.928 ± 0.14 | 2.661 ± 0.12 | 2.319 ± 0.11 | 2.089 ± 0.098 | 2.06 ± 0.096
308.15 K | 3.747 ± 0.17 | 3.184 ± 0.15 | 2.768 ± 0.13 | 2.512 ± 0.12 | 2.282 ± 0.11 | 2.045 ± 0.096 | 1.856 ± 0.088 | 1.707 ± 0.081 | 1.695 ± 0.08
318.15 K | 2.881 ± 0.14 | 2.474 ± 0.12 | 2.2 ± 0.1 | 2.012 ± 0.095 | 1.853 ± 0.088 | 1.678 ± 0.08 | 1.54 ± 0.074 | 1.439 ± 0.069 | 1.421 ± 0.068

Oc1ccc(Cl)cc1 + CCCCCOC(C)=O
Settings | viscosity [mPa·s]
298.15 K, 101 kPa, x1 = 0.5 | 1.27 ± 0.012

CC[N+](CC)(CC)CC.[Br-] + O
298.15 K, 101 kPa
Settings | viscosity [mPa·s]
x1 = 0.0009 | 0.8894
x1 = 0.0089 | 1.059
x1 = 0.0177 | 1.314
x1 = 0.0348 | 2.397

CCOCCO + CCCCCCCCCC
viscosity [mPa·s], 101.33 kPa
Settings | x1 = 0.0958 | x1 = 0.2018 | x1 = 0.2985 | x1 = 0.4011 | x1 = 0.4984 | x1 = 0.5978 | x1 = 0.6989 | x1 = 0.7994 | x1 = 0.8984
298.15 K | 0.828 ± 0.021 | 0.851 ± 0.022 | 0.905 ± 0.023 | 0.962 ± 0.024 | 1.046 ± 0.026 | 1.128 ± 0.028 | 1.223 ± 0.03 | 1.345 ± 0.032 | 1.512 ± 0.036
303.15 K | 0.767 ± 0.02 | 0.785 ± 0.02 | 0.827 ± 0.021 | 0.879 ± 0.022 | 0.946 ± 0.024 | 1.016 ± 0.025 | 1.108 ± 0.027 | 1.209 ± 0.029 | 1.354 ± 0.032
308.15 K | 0.709 ± 0.019 | 0.725 ± 0.019 | 0.766 ± 0.02 | 0.806 ± 0.021 | 0.866 ± 0.022 | 0.929 ± 0.023 | 1.001 ± 0.025 | 1.096 ± 0.027 | 1.223 ± 0.03
313.15 K | 0.661 ± 0.017 | 0.681 ± 0.018 | 0.705 ± 0.018 | 0.744 ± 0.019 | 0.797 ± 0.02 | 0.844 ± 0.021 | 0.921 ± 0.023 | 0.992 ± 0.025 | 1.103 ± 0.027

CC(CC(C)(C)C)CP(=O)(O)CC(C)CC(C)(C)C (centres undefined) + ClCCCl
298.15 K, 101 kPa
Settings | viscosity [mPa·s]
x1 = 0.0052 | 0.825 ± 0.01
x1 = 0.0094 | 0.891 ± 0.011
x1 = 0.0107 | 0.931 ± 0.011
x2 = 0.0747 | 93.3 ± 1.4
x2 = 0.1457 | 79.06 ± 1.1
x2 = 0.2376 | 61.57 ± 0.73
x2 = 0.3715 | 42.12 ± 0.49
x2 = 0.568 | 20.09 ± 0.23
x2 = 0.7166 | 9.021 ± 0.11
x2 = 0.8017 | 5.212 ± 0.061
x2 = 0.8105 | 4.99 ± 0.058
x2 = 0.8887 | 2.678 ± 0.031
x2 = 0.8942 | 2.603 ± 0.03
x2 = 0.9417 | 1.597 ± 0.019
x2 = 0.9439 | 1.578 ± 0.018
x2 = 0.9767 | 1.087 ± 0.013
